Literature values in PMC7455853 (European Journal of Medicinal Chemistry, 2020).
Counter-ions that a name gives are not always drawn. Each block holds one compound with its values, some of them ahead of it.

Experiments:
[1] = tested on: tubulin (colchicine binding); settings: at 5 μM
NF–Y binding to the ICB2 = settings: EMSA
HIF-1 = settings: read-out: HIF-1 inhibitory activity IC50; HeLa cells

SMILES: COc1ccc(/C=C\c2cc(OC)c(OC)c(OC)c2)cc1O [CA-4, combretastatin A-4]
inhibition of colchicine binding [1]: 98%

SMILES: COc1ccc2cc3[n+](cc2c1OC)CCc1cc2c(cc1-3)OCO2 [berberine hydrochloride]
IC50 (SrtA): 120 µM

Other lines, results leading:

DNA binding affinity (ICB2 site): 0.5 µM
doses giving dose-dependent inhibition of NF–Y binding to the ICB2 (NF–Y binding to the ICB2): ≥ 3 µM
SMILES: COc1ccc(-c2nc3ccc(C(=O)Nc4cn(C)c(C(=O)Nc5cc(C(=O)NCCCN(C)C)n(CCCN)c5)n4)cc3[nH]2)cc1 [compound 19a]

IC50 (HIF-1): 10.8 µM
SMILES: O=C(Cc1ccc(O)cc1)n1cc(-c2ccc(O)cc2)c(-c2ccc(O)cc2)c1 [neolamellarin A]

IC50 (AURKA): 1.99 µM
IC50 (EGFR): 0.00376 µM
SMILES: Brc1cccc(Nc2ncnc3[nH]ccc23)c1 [compound 8]
